One data set deals with T1, CD73 protein (Homo sapiens, UniProt P21589).
T1 construct: purchased Novoprotein C446
T1 sequence (P21589 27-549): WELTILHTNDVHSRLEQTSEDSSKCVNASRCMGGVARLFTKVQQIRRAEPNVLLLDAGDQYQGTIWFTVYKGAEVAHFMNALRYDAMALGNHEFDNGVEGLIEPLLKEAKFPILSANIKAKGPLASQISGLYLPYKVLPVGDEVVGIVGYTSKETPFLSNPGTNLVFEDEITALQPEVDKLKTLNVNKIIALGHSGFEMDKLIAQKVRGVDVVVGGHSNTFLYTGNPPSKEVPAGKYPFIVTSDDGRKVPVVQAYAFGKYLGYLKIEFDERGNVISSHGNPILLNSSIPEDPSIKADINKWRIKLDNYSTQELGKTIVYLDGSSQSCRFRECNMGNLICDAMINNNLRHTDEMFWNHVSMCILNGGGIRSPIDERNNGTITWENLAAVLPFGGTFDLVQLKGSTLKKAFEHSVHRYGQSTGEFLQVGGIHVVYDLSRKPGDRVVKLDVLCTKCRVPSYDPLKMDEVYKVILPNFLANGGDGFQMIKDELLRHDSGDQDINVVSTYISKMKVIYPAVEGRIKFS
The data set can be described thus: CD73 enzyme inhibition assay (Malachite Green Phosphate Detection Kit). The class given is biochemical. The note with it: for pIC50: Tris-HCl pH 7.3, read-out: Potency (IC50 class) in CD73 enzyme assay; for inhibitory activity in the CD73 enzyme assay: result in words. As to the method:
To evaluate the inhibitory effect of selected compounds on CD73, Malachite Green Phosphate Detection Kit (R&D, Cat #DY996) was used. Briefly, compounds were dissolved and diluted to the desired concentration using phosphate-free buffer (Tris-HCl, pH 7.3). 25 μL of the compound solution was added to an equal volume of CD73 protein solution (2×concentration, 0.5 μg/mL, Novoprotein, Cat #C446), followed by a 5-minute incubation at room temperature. 10 μL of Malachite Green Reagent A was added to each well, mixed thoroughly and incubated for 10 minutes at room temperature. 10 μL of Malachite Green Reagent B was then added to each well, mixed thoroughly and incubated for 20 minutes at room temperature. Finally, the optical density of each well was determined using a microplate reader set to 620 nm.

A short description of data set [1]: Pharmacokinetic evaluation in ICR mice after intravenous injection. The note with it: mouse; ICR male mice, 1.0 mg/kg intravenous, plasma. In kind it is in vivo. As for the experimental part:
A test compound (1.0 mg/kg) was administered to fasted ICR male mice via intravenous injection, and blood samples were collected at time points of 0.08, 0.25, 0.5, 1, 2, 4, 6, 8 and 24 h after the administration. Plasma sample was separated by centrifugation (8000 rpm) and stored at −80° C. until the sample was analyzed. Concentrations of the test compound in the plasma were determined by HPLC-MS/MS: the plasma was dispensed into appropriate tubes containing internal standard and methanol or acetonitrile. The tubes were mixed vigorously for 3 minutes to achieve deproteinization and then centrifuged at 8000 rpm for 5 minutes. The supernatant was transferred to an autosampler vial, injected into the chromatographic system, and quantified on MS/MS detector. Pharmacokinetic parameters including AUC0-4, Cmax, Tmax, t1/2, MRT, Cl and Vd were calculated using WinNonlin 6.3 software. Table 3 summarizes key PK parameters for test compounds (AUC(0-t): the area under the curve from time 0 to time t; AUC(0-∞): the area under the curve from time 0 to infinity; t1/2: Half-life; CL: clearance; C0: the concentration of drug in blood if the drug molecules enter the circulation and are distributed immediately (i.e., at time 0)).

For data set [2], the target named is T2, Recombinant human 5′-nucleotidase (hCD73) (Homo sapiens, UniProt P21589).
T2 sequence (P21589 27-549): T1 sequence (P21589 27-549)
As to the kind of experiment: CD73 enzyme inhibition assay (recombinant hCD73, AMP substrate, phosphate detection). The note with it: 37° C. 20 min, absorbance 635 nm. In kind it is biochemical. As to the method:
Test compound solution preparation: Stock solution of a test compound was prepared in DMSO at 10 mM concentration. A series of preset 10-concentration solutions of a test compound were prepared by diluting the stock solution in 5-fold gradient dilution with DMSO.
Assay buffer (1×): […] Tris, 25 mM NaCl, 1 mM MgCl2, pH 7.5, 0.005% Tween-20 (freshly prepared, and ready for use).
An aliquot of 0.25 μL of compound solution or DMSO (blank control) was added to each test well of a micro well plate. Recombinant human 5′-nucleotidase (hCD73) was diluted to 1 nM in assay buffer; and an aliquot of 25 μL hCD73 (1 nM) solution was added to the corresponding wells of the plate. The contents of the well were well-mixed, and the plate was covered with sealing film, centrifuged at 1000 rpm for 30 sec., followed by incubation at room temperature for 15 min. AMP, the substrate, was diluted to 60 μM concentration in the assay buffer. To each reaction well was added 25 μL of AMP solution. After mixing well, the plate was covered with sealing film, centrifuged at 1000 rpm for 30 sec., and incubated at 37° C. for 20 min. The absorbance signal (end point) was measured on SPARK plate reader at 635 nm (See PiColorLock™ Gold Phosphate Detection System (Abcam) test kit for reference).
The reaction wells containing CD73 enzyme, substrate AMP and DMSO (no compound) were used as positive control, and the reaction wells containing substrate AMP and DMSO but no CD73 enzyme were used as negative control. The percent (%) inhibition at each concentration of compound was calculated based on and relative to the signal in the High and Low control wells contained within each assay plate. The High control wells were considered as 0% inhibition, and the low control wells, which didn't contain any compound but rather DMSO (final concentration=0.5%), as 100% inhibition. IC50 values were obtained using GraphPad Prism software.

pIC50: −log10 of the molar value.

Broadly, the pIC50 is the negative decadic logarithm of the IC50, by convention in mol/L. Take `O=P(O)(O)CP(=O)(O)OC[C@H]1O[C@@H](n2cnc3c(NCc4ccccc4)nc(Cl)nc32)C(O)C1O` (stereo partly drawn) [Compound 1]: the pIC50 on CD73 protein was greater than 8.00.
The same measure, in the same setting: then `O=P(O)(O)CP(=O)(O)OC[C@H]1O[C@@H](n2cnc3c(NCc4cccc5ccccc45)nc(Cl)nc32)C(O)C1O` (stereo partly drawn) [Compound 6], with greater than 8.00.
Still for that read-out and setting: then `O=P(O)(O)CP(=O)(O)OC[C@H]1O[C@@H](n2cnc3c(NCc4ccc5ccccc5c4)nc(Cl)nc32)C(O)C1O` (stereo partly drawn) [Compound 7], with greater than 8.00; and `C[C@]12C[C@@H]3C[C@](C)(C1)C[C@@](Nc1nc(Cl)nc4c1ncn4[C@@H]1O[C@H](COP(=O)(O)CP(=O)(O)O)C(O)C1O)(C3)C2` (stereo partly drawn) [Compound 9], with greater than 8.00; and `CCCCCCCCCCCCOC(=O)Nc1nc(Cl)nc2c1ncn2[C@@H]1O[C@H](COP(=O)(O)CP(=O)(O)O)C(O)C1O` (stereo partly drawn) [Compound 15], with greater than 8.00.
As to `O=C(CC12CC3CC(CC(C3)C1)C2)Nc1nc(Cl)nc2c1ncn2[C@@H]1O[C@H](COP(=O)(O)CP(=O)(O)O)C(O)C1O` (stereo partly drawn) [Compound 16], at CD73 protein, the pIC50 is 7.00 to 8.00.
Regarding `CCCCCCCCCCCCN(CCCCCCCCCCCC)c1nc(Cl)nc2c1ncn2[C@@H]1O[C@H](COP(=O)(O)CP(=O)(O)O)C(O)C1O` (stereo partly drawn) [Compound 19], the pIC50 on CD73 protein is less than 7.00.
Consider `O=P(O)(O)CP(=O)(O)OC[C@H]1O[C@@H](n2cnc3c(NC45CC6CC(CC(C6)C4)C5)nc(Cl)nc32)C(O)C1O` (stereo partly drawn) [Compound 22], for which, on CD73 protein, the negative-log IC50 (pIC50) is greater than 8.00.
As to `CC1(C)[C@@H]2CC[C@@]1(C)C(OC(=O)Nc1nc(Cl)nc3c1ncn3[C@@H]1O[C@H](COP(=O)(O)CP(=O)(O)O)C(O)C1O)C2` (stereo partly drawn) [Compound 23], on CD73 protein, the pIC50 was 7.00 to 8.00.
On the same count and under the same terms, in the case of `O=P(O)(O)CP(=O)(O)OC[C@H]1O[C@@H](n2cnc3c(N4CCC5(CCCCC5)C4)nc(Cl)nc32)C(O)C1O` (stereo partly drawn) [Compound 31] it was greater than 8.00; in that of `O=P(O)(O)CP(=O)(O)OC[C@H]1O[C@@H](n2cnc3c(N4C5CCC4CC(O)C5)nc(Cl)nc32)C(O)C1O` (stereo partly drawn) [Compound 51], greater than 8.00.
A word on the clearance: it is a measure of how efficiently the substance is removed, as volume per time. Low readings indicate a low capacity for elimination, high ones a high capacity for elimination. For `C[C@H](Nc1cc(Cl)nc2c1cnn2[C@@H]1O[C@H](COP(=O)(O)CP(=O)(O)O)[C@@H](O)[C@H]1O)c1ccccc1F` [Compound a, AB680, reference compound], the clearance in data set [1] is 0.7 mL/min/kg.
Take `O=P(O)(O)CP(=O)(O)OC[C@H]1O[C@@H](n2cnc3c(N4CC(c5ccccc5)c5ccccc54)nc(Cl)nc32)C(O)C1O` (stereo partly drawn) [Compound d-38]: the pIC50 in data set [2] was 8.72.
For `O=P(O)(O)CP(=O)(O)CC[C@H]1O[C@@H](n2cnc3c(NCc4ccccc4)nc(Cl)nc32)C(O)C1O` (stereo partly drawn) [a-1], at CD73 protein, the “inhibitory activity in the CD73 enzyme assay” value (“inhibitory activity” below) is “showed inhibitory activity”.
As to `C[C@]12C[C@@H]3C[C@](C)(C1)C[C@@](Nc1nc(Cl)nc4c1ncn4[C@@H]1O[C@H](CCP(=O)(O)CP(=O)(O)O)C(O)C1O)(C3)C2` (stereo partly drawn) [a-9], the “inhibitory activity” value at CD73 protein was “showed inhibitory activity”.
With `O=P(O)(O)CP(=O)(O)CC[C@H]1O[C@@H](n2cnc3c(N4CCC5(CCCCC5)C4)nc(Cl)nc32)C(O)C1O` (stereo partly drawn) [a-31], on CD73 protein, the “inhibitory activity” value is given as “showed inhibitory activity”.
In data set [1], `O=P(O)(O)CP(=O)(O)OC[C@H]1O[C@@H](n2cnc3c(N4CCC5(CCCc6ccccc65)C4)nc(Cl)nc32)[C@@H](O)C1O` (stereo partly drawn) [d-6] showed a clearance of 2.55 mL/min/kg.
With `O=P(O)(O)CP(=O)(O)OC[C@H]1O[C@@H](n2cnc3c(N4CC5(CCCCC5)c5ccccc54)nc(Cl)nc32)[C@@H](O)C1O` (stereo partly drawn) [d-7], in data set [1], the clearance is 0.0833 mL/min/kg. In data set [2], the negative-log IC50 (pIC50) is 8.74.
For `O=P(O)(O)CP(=O)(O)OC[C@H]1O[C@@H](n2cnc3c(N4CCC5(CCc6ccccc65)C4)nc(Cl)nc32)C(O)C1O` (stereo partly drawn) [d-8], the negative-log IC50 (pIC50) in data set [2] is 9.12.
The molecule `O=P(O)(O)CP(=O)(O)OC[C@H]1O[C@@H](n2cnc3c(N4CC5(Cc6ccccc6C5)C4)nc(Cl)nc32)[C@@H](O)C1O` (stereo partly drawn) [d-9] gave a clearance in data set [1] of 0.75 mL/min/kg. The pIC50 in data set [2] was 9.14.
The molecule `O=P(O)(O)CP(=O)(O)OC[C@H]1O[C@@H](n2cnc3c(N4CC5(CCCc6ccccc65)C4)nc(Cl)nc32)[C@@H](O)C1O` (stereo partly drawn) [d-12] had a clearance in data set [1] of 1.7 mL/min/kg. Further, the pIC50 in data set [2] is 9.40.
In data set [1], `O=P(O)(O)CP(=O)(O)OC[C@H]1O[C@@H](n2cnc3c(N4CC5(CCCC5)c5ccccc54)nc(Cl)nc32)[C@@H](O)C1O` (stereo partly drawn) [d-13] had a clearance of 0.05 mL/min/kg. Also, the pIC50 in data set [2] is 8.82.
As for `O=P(O)(O)CP(=O)(O)OC[C@H]1O[C@@H](n2cnc3c(N4CC5(CCC5)c5ccccc54)nc(Cl)nc32)[C@@H](O)C1O` (stereo partly drawn) [d-20], the clearance in data set [1] is 0.133 mL/min/kg. In addition, in data set [2], the negative logarithm of the IC50 (pIC50) is 8.89.
In the same order, the values of `O=P(O)(O)CP(=O)(O)OC[C@H]1O[C@@H](n2cnc3c(N4CCC5(CC4)Cc4ccccc4C5)nc(Cl)nc32)[C@@H](O)C1O` (stereo partly drawn) [d-21] are 2.28 mL/min/kg and 8.85.
`O=P(O)(O)CP(=O)(O)OC[C@H]1O[C@@H](n2cnc3c(N4CC5(CCCCCC5)c5ccccc54)nc(Cl)nc32)[C@@H](O)C1O` (stereo partly drawn) [d-22]: the clearance in data set [1] is 0.1 mL/min/kg.
Regarding `O=P(O)(O)CP(=O)(O)OC[C@H]1O[C@@H](n2cnc3c(N4CC(c5ccccc5)(c5ccccc5)C4)nc(Cl)nc32)C(O)C1O` (stereo partly drawn) [d-35], the pIC50 in data set [2] is 8.86.
The same measure, in the same setting: in the case of `O=P(O)(O)CP(=O)(O)OC[C@H]1O[C@@H](n2cnc3c(N4CC(c5ccccc5)C(c5ccccc5)C4)nc(Cl)nc32)C(O)C1O` (stereo partly drawn) [d-36] it was 8.73.

Values taken from patent publication US20240024346A1, “CD73 INHIBITORS AND PHARMACEUTICAL USES THEREOF” (RISEN (SUZHOU) PHARMA TECH CO., LTD., priority 2020, published 2024).
